The record followed here is patent US9132140B2, “Boronic acid derivatives and therapeutic uses thereof” (Rempex Pharmaceuticals, Inc., priority 2013, dated 2015).

One test has as its system KPM1097 (NDM, KPC). The class given is cell-based, Klebsiella pneumoniae. An excerpt: (§1) Several strains simultaneously expressing both class A and class B carbapenemases, which were constructed using conjugation, were also included in the panel.
The test system of the next test is KPM1111 (NDM, KPC). The class given is cell-based, Klebsiella pneumoniae.
From the text: as §1

In a further test the test system is ECM6703 (pUCP24-NDM-1). Description: microbe, parasite or virus in culture. The note with it: Escherichia coli, read-out: Imipenem MIC Alone. The class given is cell-based, E. coli.
A further test concerns ECLM1015 (NDM, KPC). The class given is cell-based, Enterobacter cloacae.
From the text: as §1

The test system of a further test is ECL1026 (KPC). The class given is cell-based, Enterobacter cloacae.
From the text: as §1

The next test deals with ECL1055 (KPC). The class given is cell-based, Enterobacter cloacae.
From the text: as §1

For another test, the system named is ECLM1013 (NDM, KPC). The class given is cell-based, Enterobacter cloacae.
From the text: as §1

For the next test, the system named is ECL1036 (KPC). The class given is cell-based, Enterobacter cloacae.
From the text: as §1

The test system of the next test is ECLM1017 (VIM, KPC). The class given is cell-based, Enterobacter cloacae.
From the text: as §1

Another test has as its system ECL1082 (VIM-1). The class given is cell-based, Enterobacter cloacae.
From the text: as §1

The next test has as its system ECLM1014 (NDM, KPC). The class given is cell-based, Enterobacter cloacae.
From the text: as §1

In the next test the test system is ECLM1016 (NDM, KPC). The class given is cell-based, Enterobacter cloacae.
From the text: as §1

Another test relates to ECLM1019 (VIM, KPC). The class given is cell-based, Enterobacter cloacae.
From the text: as §1

The subject of test [1] is ECL1057 (NDM-1, TEM-1, CTX-M-15). The class given is cell-based, Enterobacter cloacae.
From the text: as §1

The subject of the next test is ECL1045 (VIM-1). The class given is cell-based, Enterobacter cloacae.
From the text: as §1

In a further test the test system is ECLM1018 (VIM, KPC). The class given is cell-based, Enterobacter cloacae.
From the text: as §1

For a further test, the system named is EA1019 (SHV-5, VIM-1). The class given is cell-based, Enterobacter aerogenes.
From the text: as §1

The subject of test [2] is KP1087 (KPC-2, CTX-M-15, SHV-11, TEM-1). The class given is cell-based, Klebsiella pneumoniae. An excerpt:
(§2) The results are present in Table 6.
(§3) The results are present in Table 7.

Test [3] relates to KP1081 (NDM-1, TEM-1, SHV-11, CMY-6, CTX-M-15). The class given is cell-based, Klebsiella pneumoniae.
From the text: as §2, §3

The subject of a further test is ECM6711 (pUCP24-VIM-1). In words: microbe, parasite or virus in culture. The class given is cell-based, E. coli. To be noted: Escherichia coli, read-out: Imipenem MIC Alone.
For test [4], the system named is EC1064 (NDM-1, CMY-6, CTX-M-15). The class given is cell-based, Escherichia coli.
From the text: as §1

A further test relates to EC1061 (NDM-1, CMY-6). The class given is cell-based, Escherichia coli.
From the text: as §1

The test system of another test is EC1065 (IMP-1 CMY-2). The class given is cell-based, Escherichia coli.
From the text: as §1

A further test concerns EC1068 (VIM-1). The class given is cell-based, Escherichia coli.
From the text: as §1

Turning to `C[C@@H](O)[C@H]1C(=O)N2C(C(=O)O)=C(SCCN=CN)C[C@H]12` [Imipenem, reference compound], the “Carbapenem MIC alone” value was “Z (key: X: MIC of less than 1 μg/mL; Y: MIC of 1 μg/mL to 10 μg/mL; Z: MIC of greater than 10 μg/mL)” in the test on KPM1097 (NDM, KPC); “Z (key: X: MIC of less than 1 μg/mL; Y: MIC of 1 μg/mL to 10 μg/mL; Z: MIC of greater than 10 μg/mL)” in the test with KPM1111 (NDM, KPC); “Z (key: X: MIC of less than 1 μg/mL; Y: MIC of 1 μg/mL to 10 μg/mL; Z: MIC of greater than 10 μg/mL)” in the test with ECLM1015 (NDM, KPC); “Y (key: X: MIC of less than 1 μg/mL; Y: MIC of 1 μg/mL to 10 μg/mL; Z: MIC of greater than 10 μg/mL)” with ECL1026 (KPC); “Y (key: X: MIC of less than 1 μg/mL; Y: MIC of 1 μg/mL to 10 μg/mL; Z: MIC of greater than 10 μg/mL)” with ECL1055 (KPC); “Z (key: X: MIC of less than 1 μg/mL; Y: MIC of 1 μg/mL to 10 μg/mL; Z: MIC of greater than 10 μg/mL)” in the test with ECLM1013 (NDM, KPC). Further, the “Carbapenem MIC alone” value in the test on ECL1036 (KPC) is “Y (key: X: MIC of less than 1 μg/mL; Y: MIC of 1 μg/mL to 10 μg/mL; Z: MIC of greater than 10 μg/mL)”; in the test on ECLM1017 (VIM, KPC) it was “Z (key: X: MIC of less than 1 μg/mL; Y: MIC of 1 μg/mL to 10 μg/mL; Z: MIC of greater than 10 μg/mL)”; with ECL1082 (VIM-1) it was “Z (key: X: MIC of less than 1 μg/mL; Y: MIC of 1 μg/mL to 10 μg/mL; Z: MIC of greater than 10 μg/mL)”; in the test with ECLM1014 (NDM, KPC), “Y (key: X: MIC of less than 1 μg/mL; Y: MIC of 1 μg/mL to 10 μg/mL; Z: MIC of greater than 10 μg/mL)”; in the test with ECLM1016 (NDM, KPC), “Z (key: X: MIC of less than 1 μg/mL; Y: MIC of 1 μg/mL to 10 μg/mL; Z: MIC of greater than 10 μg/mL)”; in the test with ECLM1019 (VIM, KPC), “Z (key: X: MIC of less than 1 μg/mL; Y: MIC of 1 μg/mL to 10 μg/mL; Z: MIC of greater than 10 μg/mL)”. Besides, the “Carbapenem MIC alone” value in [1] is listed as “Z (key: X: MIC of less than 1 μg/mL; Y: MIC of 1 μg/mL to 10 μg/mL; Z: MIC of greater than 10 μg/mL)”; in the test with ECL1045 (VIM-1), “Y (key: X: MIC of less than 1 μg/mL; Y: MIC of 1 μg/mL to 10 μg/mL; Z: MIC of greater than 10 μg/mL)”; with ECLM1018 (VIM, KPC) it was “Z (key: X: MIC of less than 1 μg/mL; Y: MIC of 1 μg/mL to 10 μg/mL; Z: MIC of greater than 10 μg/mL)”; with EA1019 (SHV-5, VIM-1), “Z (key: X: MIC of less than 1 μg/mL; Y: MIC of 1 μg/mL to 10 μg/mL; Z: MIC of greater than 10 μg/mL)”; in test [2], “Y (key: X: MIC of less than 1 μg/mL; Y: MIC of 1 μg/mL to 10 μg/mL; Z: MIC of greater than 10 μg/mL)”; in test [3], “Z (key: X: MIC of less than 1 μg/mL; Y: MIC of 1 μg/mL to 10 μg/mL; Z: MIC of greater than 10 μg/mL)”. Also, the “Carbapenem MIC alone” value was “Z (key: X: MIC of less than 1 μg/mL; Y: MIC of 1 μg/mL to 10 μg/mL; Z: MIC of greater than 10 μg/mL)” in test [4]; “Y (key: X: MIC of less than 1 μg/mL; Y: MIC of 1 μg/mL to 10 μg/mL; Z: MIC of greater than 10 μg/mL)” in the test with EC1061 (NDM-1, CMY-6); “Y (key: X: MIC of less than 1 μg/mL; Y: MIC of 1 μg/mL to 10 μg/mL; Z: MIC of greater than 10 μg/mL)” in the test on EC1065 (IMP-1 CMY-2); “Y (key: X: MIC of less than 1 μg/mL; Y: MIC of 1 μg/mL to 10 μg/mL; Z: MIC of greater than 10 μg/mL)” with EC1068 (VIM-1). Further, the MIC with ECM6703 (pUCP24-NDM-1) and with ECM6711 (pUCP24-VIM-1) was above 1 µg/mL in each case.
